Assay results reported in publication doi:10.1101/2024.12.01.626272v1 (biorxiv, 2024).

Biological target: T1, olaAHR2a (Oryzias latipes, UniProt A0A2I4U6J3)
T1 sequence (A0A2I4U6J3 1-904): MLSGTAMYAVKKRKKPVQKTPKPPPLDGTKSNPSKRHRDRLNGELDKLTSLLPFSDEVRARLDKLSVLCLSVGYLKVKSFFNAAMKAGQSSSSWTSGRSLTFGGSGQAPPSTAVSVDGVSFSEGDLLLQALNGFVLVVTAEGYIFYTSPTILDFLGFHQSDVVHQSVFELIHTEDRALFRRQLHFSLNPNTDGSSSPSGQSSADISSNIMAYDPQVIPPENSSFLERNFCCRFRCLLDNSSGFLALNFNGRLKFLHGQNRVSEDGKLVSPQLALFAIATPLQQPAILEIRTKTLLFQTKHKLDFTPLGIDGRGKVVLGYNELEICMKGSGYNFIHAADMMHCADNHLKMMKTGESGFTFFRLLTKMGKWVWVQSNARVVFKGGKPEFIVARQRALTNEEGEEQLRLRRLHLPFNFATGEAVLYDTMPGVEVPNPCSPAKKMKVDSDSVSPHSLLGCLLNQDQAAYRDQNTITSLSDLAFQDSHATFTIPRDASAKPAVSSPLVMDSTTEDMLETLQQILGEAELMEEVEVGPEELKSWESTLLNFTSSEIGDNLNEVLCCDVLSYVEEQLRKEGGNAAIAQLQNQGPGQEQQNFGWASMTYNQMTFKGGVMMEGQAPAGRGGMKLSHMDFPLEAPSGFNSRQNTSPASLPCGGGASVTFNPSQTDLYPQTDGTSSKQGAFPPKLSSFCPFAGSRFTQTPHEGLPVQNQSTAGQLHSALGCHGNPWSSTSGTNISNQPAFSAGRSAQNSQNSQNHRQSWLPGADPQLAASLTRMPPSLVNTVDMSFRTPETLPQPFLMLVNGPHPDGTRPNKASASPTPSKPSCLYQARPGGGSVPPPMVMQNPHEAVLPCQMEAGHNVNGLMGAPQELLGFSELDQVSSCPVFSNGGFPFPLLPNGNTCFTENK
Test: luciferase reporter transactivation
Assay type: cell-based

SMILES: O=c1cc(-c2ccccc2)oc2ccc3ccccc3c12 [BNF]
- EC50: 19.4 ± 1.98 nM
